Data taken from patent EP0184331A2 (priority 1984, dated 1986).
Where two headings read alike, the source gives them in different places.

Columns and labels:
[1] = system: leukemic cells obtained by infection of mice with Graffi's leukemia virus; settings: cited from earlier work
[2] = system: Graffi virus; settings: cited from earlier work
[3] = system: tobacco mosaic virus (TMV); settings: 100 mW/cm^2 long-wave ultraviolet light; AMT and HMT indistinguishable; cited from earlier work
[4] = system: reovirus (a double-stranded RNA virus); settings: cited from earlier work
[5] = system: Intracellular influenza virus; settings: 10 µg/ml of AMT, 1.2 mW/cm^2; cited from earlier work
[6] = system: Moloney sarcoma virus; settings: cited from earlier work
[7] = system: vesicular stomatitis virus; settings: approximately 5 minutes irradiation at 9 mW/cm^2, 8.2 µg/ml AMT; cited from earlier work
[8] = system: Western equine encephalitis virus (WEE, an RNA virus); settings: cited from earlier work
[9] = system: Vesicular stomatitis virus (VSV); settings: cited from earlier work; for effectiveness in photoinactivation compared with TMP: 0.7 mW/cm^2 long-wave UV light; for light dose response in the inactivation of VSV: 20-30 µg/ml
[10] = system: cell-free influenza virus; settings: 1.2 mW/cm^2, cited from earlier work
[11] = system: vesicular stomatitis virus; settings: 9 mW/cm^2 long-wave ultraviolet light; sufficient for inactivation; cited from earlier work
[12] = system: herpes simplex virus (a DNA virus); settings: cited from earlier work
[13] = system: influenza virus; settings: cited from earlier work
[14] = system: Herpes virus; settings: cited from earlier work; for photoinactivation: in 0.9 minutes, 10 ug/ml, 1.2 mW/cm^2 long-wave ultraviolet light
[15] = system: Rous sarcoma virus; settings: cited from earlier work
[16] = cited from earlier work
[17] = system: Teschen disease virus; settings: cited from earlier work
[18] = system: NewCastle disease virus; settings: cited from earlier work
[19] = system: fowl pox virus; settings: cited from earlier work
[20] = system: canine hepatitis virus; settings: cited from earlier work
[21] = system: foot-and-mouth disease virus; settings: cited from earlier work
[22] = system: HTLV-III; assay type: cell-based, Human Tumor Leukemia Virus (HTLV) III
[23] = system: pseudorabies; settings: cited from earlier work
[24] = 30 minutes at 11.5 mW/cm^2 ultraviolet light, 10 µg/ml
[25] = 30 minutes at 11.5 mW/cm^2 ultraviolet light (365 mm), 10 µg/ml
[26] = at higher psoralen derivative concentrations
[27] = on a molar basis, within TMP solubility range

Compound: Cc1coc2c(C)c3oc(=O)cc(C)c3cc12 [4,4',8-trimethylpsoralen]
- effect on leukemic cells (ability to replicate or induce leukemia in adult mice) [1, 24]: killed the cells
- properties of the [intracellular] Graffi virus [2, 25]: remained unchanged

Compound: Cc1c2occc2cc2ccc(=O)oc12 [8-methyl-psoralen]
- effect on leukemic cells (ability to replicate or induce leukemia in adult mice) [1, 24]: killed the cells
- properties of the [intracellular] Graffi virus [2, 25]: remained unchanged

Compound: Cc1oc2c(C)c3oc(=O)cc(C)c3cc2c1CN [AMT, 4'-aminomethyl 4,5',8-trimethyl-psoralen]
- effect on translational activity compared with TMP [3]: slightly greater than the effects of TMP
- reduction of infectivity ([4]; 15 minutes irradiation at 9 mW/cm^2, AMT 2.8 x 10^-4 M = 82 ug/ml): > 10^4 -fold
- time required for a 10^7-fold inactivation [5]: 4 minutes
- inactivation [6]: 10 -fold
- reduction of viral RNA polymerase activity [7]: 100 -fold
- inactivation ([8]; approximately 5 minutes of irradiation at 1.9 mW/cm^2, 10 µg/ml AMT): 10^8 -fold
- inactivation rates compared with TMP [8, 26]: superior inactivation rates
- effectiveness in photoinactivation compared with TMP [9]: a thousand times more effective than TMP
- photoinactivation of VSV, comparison of derivatives ([9]; 2-3 µg/ml, 0.7 mW/cm^2): superior to HMT and MMT
- light dose response in the inactivation of VSV ([9]; 0.7 mW/cm^2): equivalent with respect to light dose response
- rate of inactivation compared with equivalent amounts of HMT ([10]; at all psoralen concentrations): more rapidly inactivated
- inactivation ([10]; in 1 minute, 10 µg/ml of AMT): 10 -fold
- photoreaction with viral RNA [11]: photoreact only with a single base (cytosine)
- inactivation rates compared with TMP [12, 26]: superior inactivation rates
- reduction of viral RNA polymerase activity ([13]; approximately 5 minutes irradiation at 9 mW/cm^2, 8.2 µg/ml AMT): 100 -fold
- effectiveness compared with HMT ([14]; at lower concentrations of the psoralen derivatives, 1.2 mW/cm^2): always more effective than an equal amount of HMT
- photoinactivation [14]: 10^4 -fold

Compound: Cc1oc2c(C)c3oc(=O)cc(C)c3cc2c1CO [HMT, 4'-hydroxymethyl 4,5',8-trimethyl-psoralen]
- effect on translational activity compared with TMP [3]: slightly greater than the effects of TMP
- inactivation [15]: 10^4 -fold
- reduction of infectivity ([4]; 20 minutes of irradiation at 9 mW/cm^2, HMT 2.8 x 10^-4 M = 72 µg/ml): 5 -fold
- effectiveness in photoinactivation compared with TMP [9]: a thousand times more effective than TMP
- light dose response in the inactivation of VSV ([9]; 0.7 mW/cm^2): equivalent with respect to light dose response
- less effective than AMT in the photoinactivation of influenza virus ([13]; same conditions as AMT (9 mW/cm^2)): about 10 -fold
- photoinactivation [14]: 10^4 -fold

Compound: COCc1c(C)oc2c(C)c3oc(=O)cc(C)c3cc12 [MMT, 4'-methoxymethyl 4,5',8-trimethyl-psoralen]
- effectiveness in photoinactivation compared with TMP [9]: a thousand times more effective than TMP
- light dose response in the inactivation of VSV ([9]; 0.7 mW/cm^2): equivalent with respect to light dose response

Compound: Cc1cc2cc3c(C)cc(=O)oc3c(C)c2o1 [TMP, 4,5',8-tri-methylpsoralen]
- solubility range [16]: 0 to 1 µg/mL
- effectiveness in photoinactivation compared with AMT [8, 27]: more effective
- effectiveness in photoinactivation compared with AMT [12, 27]: more effective

Compound: O=c1ccc2cc3ccoc3cc2o1 [psoralen, Psoralen]
- irradiation resisted by the virus [17]: up to 120 minutes
- irradiation resisted by the virus [18]: up to 120 minutes
- RSV inactivated [15]: approximately 1 x 10^5 FFU/ml
- effect on leukemic cells (ability to replicate or induce leukemia in adult mice) [1]: killed the cells
- photoinactivation [19]: photoinactivated
- photoinactivation [20]: photoinactivated
- irradiation resisted by the virus [21]: up to 120 minutes
- HTLV-III titers [22]: 1 x 10^5 FFU/mL
- infectious HTLV-III recovered [22]: no infectious HTLV-III was recovered
- properties of the [intracellular] Graffi virus [2]: remained unchanged
- photoinactivation [23]: photoinactivated
